Measured values published in paper PMC11577759, “The structure of lipopeptides impacts their antiviral activity and mode of action against SARS-CoV-2 in vitro” (Applied and Environmental Microbiology, 2024).
≈ marks a conversion by molar mass, not a printed value. Entries after “also recorded” stand apart in the source; their conditions may differ. Read-outs that look alike come from different tables or passages of the source. Starred links: 1 amine or outer side, 2 acyl side, 3 side chain; linkers in the order of their positions; H or OH if unused. Positions of bridges follow the written chain, without caps; N, C: chain ends. Non-standard residues stand in square brackets, D forms with d. Residues, ends and D or L forms follow the SMILES beside them. X1 = CC(C)CCCCCCCCC[C@H](CC(=O)[*:1])O[*:2]

Experiments:
Vero E6 cells = experiment: Cytotoxicity, CyQUANT XTT cell viability assay; type: cell-based, Chlorocebus sp.; conditions: for IC50 (half maximal inhibitory concentration, cytotoxicity): Vero E6 cells, XTT, mean (standard deviation), fengycin and caspofungin determined at higher concentrations in a subsequent experiment; for IC50 (half maximal inhibitory concentration, cytotoxicity) / Cell viability: 72 h; for Cytotoxicity: concentrations up to 100 µg/mL, Vero E6, 72 h; for Cell viability: 100 µg/mL, Vero E6
Experimental: (§1) Chlorocebus sp. kidney epithelial cells (Vero E6; ATCC VERO C1008) were cultured in Dulbecco’s Modified Eagle medium (DMEM) High Glucose w/ Stable Glutamine w/ Sodium Pyruvate (VWR, USA) supplemented with 2% (vol/vol) of decomplemented fetal bovine serum (FBS, Biowest, France) and 1% (vol/vol) Penicillin-Streptomycin (VWR, USA). The cells were grown at 37°C in a humidified 5% CO2 atmosphere. Cells were routinely passaged when they reached 100% confluence and were passaged until passage 15.
(§2) The cytotoxic activity of the lipopeptides was assessed using a CyQUANT XTT Cell Viability Assay (Thermo Fisher Scientific) according to the manufacturer’s instructions. […] The cells were then incubated for 72 h at 37°C. The kit was then used following the manufacturer’s instructions, and the plates were read at 450 nm and 660 nm using a Multiskan GO Microplate Spectrophotometer (Thermo Fisher Scientific). The percentage of viable cells was calculated as (AT450 − AT660 − AB450) / (AC450 − AC660) × 100%, where AT450, AT660, AB450, AC450, and AC660 represent the absorbance of the tested well at 450 nm, of the tested well at 660 nm, of the blank (only medium) at 450 nm, of the control cells at 450 nm, and of the control cells at 660 nm, respectively. One hundred percent viability corresponds to the viability of uninfected cells. DMSO concentrations ranging from 0.5% (vol/vol) to 0.001% (vol/vol) were used as a negative control for the assay. Every sample was tested in triplicate.

SARS-CoV-2 [1] = experiment: Replication / antiviral assay, viral RNA in supernatant by RT-qPCR; type: cell-based; conditions: for EC50 (half maximal effective concentration): SARS-CoV-2 MOI 0.01, Vero E6, viral RNA at 72 h pi by RT-qPCR; for EC50 (half maximal effective concentration) / EC50: mean (standard deviation); for Viral RNA concentration per milliliter: surfactin 35, WLIP 20, caspofungin 100 µg/mL; for Reduction of viral RNA concentration / Reduction in viral RNA: surfactin 35, WLIP 20, fengycin 50, caspofungin 100 µg/mL; for EC50: Severe acute respiratory syndrome coronavirus 2, Vero C1008, 72 h, read-out: EC50 (half maximal effective concentration); for Reduction in viral RNA: 72 h (Fig. 5)
SARS-CoV-2 [2] = test system: SARS-CoV-2; parameters: method as in PMID 36868316; conditions: co-incubated with SARS-CoV-2; 12.5 µg/mL iturin A, 25 µg/mL mycosubtilin; Vero cells; cited from earlier work
[3] = Cytotoxicity, CyQUANT XTT cell viability assay; type: cell-based, Chlorocebus sp.; conditions: Chlorocebus sp. (African green monkey), Vero E6 cells; for IC50 at 72 h: Vero E6 cells (kidney epithelial cells), XTT, mean (standard deviation), fengycin and caspofungin determined at higher concentrations in a subsequent experiment, read-out: IC50 (half maximal inhibitory concentration, cytotoxicity); for viability at 72 h: surfactin 35, WLIP 20, fengycin 50, caspofungin 100 µg/mL, Vero E6 (Fig. 5)
Experimental: as §1, §2

SARS-CoV-2 [4] = experiment: Binding inhibition: pre-treatment of SARS-CoV-2 and incubation on cells; type: cell-based; conditions: virus pre-treated, surfactin 35, WLIP 20, fengycin 50, caspofungin 100 µg/mL
SARS-CoV-2 [5] = type: cell-based; conditions: cells pre-treated, surfactin 35, WLIP 20, fengycin 50, caspofungin 100 µg/mL
SARS-CoV-2 [6] = conditions: surfactin 35, WLIP 20, fengycin 50, caspofungin 100 µg/mL; 100% = untreated infected cells at 37°C
Experimental: To determine the impact of lipopeptides on the fusion step, intracellular viral RNA was quantified after infection of cells with SARS-CoV-2 but before the budding step. […] The cells were pre-chilled for 15 min on ice. The cells were infected with SARS-CoV-2 (MOI of 10) in DMEM + 2% FBS and incubated for 2 h on ice with gentle agitation. The inoculum was removed, and the cells were gently washed three times with ice-cold DPBS. The positive control was inactivated to determine the basal viral RNA concentration after binding of the virus. The lipopeptides were added to room temperature DMEM + 2% (vol/vol) FBS and incubated at 37°C for 7 h. […] The cells were rinsed with DPBS, and the wells were dried. The samples were inactivated for 30 min at 70°C before quantification of the viral RNA by RT-qPCR. Every sample was tested in triplicate.

SARS-CoV-2 [7] = experiment: Budding inhibition assay; type: cell-based; conditions: 10 h pi, surfactin 35 µg/mL
Experimental: Fresh medium was added to the cells, and the plates were incubated for 5 h at 37°C. The supernatant was discarded, and lipopeptides were added to the cells. A sample of cell supernatant was taken every hour for 4 h. After infection, the control was kept at 4°C to inhibit the release of virions, and act as a positive control of the experiment. […] Every sample was tested in triplicate.

Vero cells = test system: Vero cells; parameters: method as in earlier work; conditions: ref 38 (Shekunov et al.); cited from earlier work
SARS-CoV-2 [8] = test system: SARS-CoV-2; parameters: method as in doi:10.3390/applmicrobiol2030052; conditions: 1 mg/mL, Vero E6 cells; cited from earlier work
SARS-CoV-2 [9] = experiment: Direct antiviral assay by viral titration (TCID50); conditions: 1 h incubation with virus, vs virus alone
[10] = 100 µg/mL, 72 h pi, compared to untreated infected cells
[11] = 24 h pi, serum diluted five times
[12] = 72 h pi, serum diluted five times

Row | Molecule | IC50 (half maximal inhibitory concentration, cytotoxicity) (Vero E6 cells) | Cytotoxicity (Vero E6 cells) | Maximal RNA reduction at 100 µg/mL (SARS-CoV-2 [1]; [10]) | EC50 (half maximal effective concentration) (SARS-CoV-2 [1]) | Cell viability (Vero E6 cells) | Viral titer and SARS-CoV-2 cytopathic effects (SARS-CoV-2 [2]) | IC50 at 72 h [3] | viability at 72 h [3] | Maximal RNA reduction at 100 µg/mL (SARS-CoV-2 [1]) | Viral RNA concentration per milliliter (SARS-CoV-2 [1]; [11]) | Viral RNA concentration per milliliter (SARS-CoV-2 [1]; 72 h pi) | Reduction of viral RNA concentration (SARS-CoV-2 [1]; [12]) | EC50 (SARS-CoV-2 [1]) | Reduction in viral RNA (SARS-CoV-2 [1]) | Binding percentage of SARS-CoV-2 to cells (SARS-CoV-2 [4]) | Binding percentage of SARS-CoV-2 to cells (SARS-CoV-2 [5]) | Fusion percentage (SARS-CoV-2 [6]) | IC50 (Vero cells) | further results
1 | Colistin (polymyxin E) [reference compound] | >100.0 µg/mL | did not cause any cytotoxicity | 0.2-log | >100.0 µg/mL | – | – | – | – | – | – | – | – | – | – | – | – | – | – | Maximal RNA reduction at 100 µg/mL (SARS-CoV-2 [1]; 100 µg/mL, 72 h pi, compared to untreated infected cells, listed as colistin): no activity up to 100 µg/mL
2 | Mycosubtilin | 1.8 (0.1) µg/mL | – | 4.1-log | 12.9 (2.0) µg/mL | no cell viability was observed | could reduce the viral titer and SARS-CoV-2 cytopathic effects (CPEs) | – | – | – | – | – | – | – | – | – | – | – | – | –
3 | Iturin A | 4.9 (0.5) µg/mL | – | 3.9-log | 18.2 (1.8) µg/mL | no cell viability was observed | could reduce the viral titer and SARS-CoV-2 cytopathic effects (CPEs) | – | – | – | – | – | – | – | – | – | – | – | – | –
4 | CC[C@H](C)C[C@H](C)CCCCCCCCC(=O)N[C@H]1C[C@@H](O)[C@@H](NCCN)NC(=O)[C@@H]2[C@@H](O)CCN2C(=O)[C@H]([C@H](O)CCN)NC(=O)[C@H]([C@H](O)[C@@H](O)c2ccc(O)cc2)NC(=O)[C@@H]2C[C@@H](O)CN2C(=O)[C@H]([C@@H](C)O)NC1=O [Caspofungin, reference compound] | – | did not cause any cytotoxicity; also recorded: without any apparent cytotoxicity | – | – | – | – | 129 µg/mL (≈ 118 µM) | 96.9% | 3.7-log | 7.9 × 10^2 RNA concentration per milliliter | 1.8 × 10^4 RNA concentration per milliliter | 2.1 log | 140 µg/mL (≈ 128 µM) | 2.4 log | did not show any effect on the binding percentage | 81% | 51.4% | – | Maximal RNA reduction at 100 µg/mL (SARS-CoV-2 [1]; listed as caspofungin): 3.7 log
5 | CC(C)CCCCCCCCC[C@@H]1CC(=O)N[C@@H](CCC(=O)O)C(=O)N[C@@H](CC(C)C)C(=O)N[C@H](CC(C)C)C(=O)N[C@@H](C(C)C)C(=O)N[C@@H](CC(=O)O)C(=O)N[C@H](CC(C)C)C(=O)N[C@@H](CC(C)C)C(=O)O1 [Surfactin] (EL[dL]VD[dL]L; linker N-C via X1) | – | – | – | – | – | – | 51.5 µg/mL (≈ 49.7 µM) | 98.5% | 6.3-log | 2.5 × 10^2 RNA concentration per milliliter | 5.7 × 10^1 RNA concentration per milliliter | 4.6 log | 50 µg/mL (≈ 48.2 µM) | 2.9 log | 34.7% | 10.0% | 10.4% | 0.6 µg/mL (≈ 0.579 µM) | viability at 72 h, 45 µg/mL ([3]; 45 µg/mL): ~0%; Viral RNA (SARS-CoV-2 [1]; 45 µg/mL): no viral RNA was detected; SARS-CoV-2 RNA concentration (SARS-CoV-2 [1]; 100 µg/mL, at every timepoint (24, 48, 72 h)): non-detectable levels; Reduction of viral RNA concentration (SARS-CoV-2 [1]; [11]): 1.1 log; Maximal RNA reduction at 100 µg/mL (SARS-CoV-2 [1]; listed as surfactin): 6.3 log; Reduction of RNA concentration (budding) (SARS-CoV-2 [7]): 1 log; RNA concentration per milliliter in supernatant (budding) (SARS-CoV-2 [7]; infected cells without treatment 8646.9): 858.7 RNA concentration per milliliter; SARS-CoV-2 infectivity (SARS-CoV-2 [8]): able to reduce SARS-CoV-2 infectivity; Reduction in viral titer (direct effect) (SARS-CoV-2 [9]; 100 µg/mL): 1.6 log; Reduction in viral titer (direct effect) (SARS-CoV-2 [9]; surfactin 35, WLIP 20, fengycin 50, caspofungin 100 µg/mL, serum diluted five times): did not directly inactivate SARS-CoV-2
6 | Polymyxin B [reference compound] | >100.0 µg/mL | did not cause any cytotoxicity | 0.3-log | >100.0 µg/mL | – | – | – | – | – | – | – | – | – | – | – | – | – | 1.1 µg/mL | Maximal RNA reduction at 100 µg/mL (SARS-CoV-2 [1]; 100 µg/mL, 72 h pi, compared to untreated infected cells, listed as polymyxin B): no activity up to 100 µg/mL
